Columns and labels:
[1] = test system: Glomerella lagenarium (Colletotrichum lagenarium); assay: Fungicidal activity against Glomerella lagenarium (Colletotrichum lagenarium) liquid culture / cucumber / preventative (anthracnose); type: cell-based; conditions: Colletotrichum orbiculare; 20 ppm in the applied formulation; liquid culture (PDB), growth inhibition measured photometrically after 3 to 4 days; compared to untreated control; read-out: disease control
How it was run: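 Photometric read-out of fungal growth after 2–7 days, expressed as percent antifungal activity versus untreated check. Cryo-stored conidia in PDB; compound at 20 ppm; dark, 24 °C, 96% RH.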

[2] = test system: Puccinia recondita f. Sp. Tritici; assay: Fungicidal activity against Puccinia recondita f. sp. tritici / wheat / leaf disc preventative (brown rust); type: in vivo; conditions: foliar, 200 ppm in the applied formulation, wheat leaf segments, preventative, compared to untreated control leaf disks, read-out: disease control
How it was run: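 Preventative leaf-segment test, wheat cv. Kanzler on water agar. Spray compound at 200 ppm, inoculate with spores 1 day later; 19° C., 75% rh, 12/12 h light. Read-out: % disease control vs untreated, 7 to 9 days after application.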

[3] = test system: Phakopsora Pachyrhizi; assay: Fungicidal activity against Phakopsora pachyrhizi / soybean / leaf disc preventative (Asian soybean rust); type: in vivo; conditions: foliar, 200 ppm in the applied formulation, soybean leaf disks, compared to untreated control leaf disks, read-out: disease control
How it was run: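 Preventative soybean leaf-disc test: discs on water agar sprayed with diluted formulated compound, inoculated one day later with spores on the lower surface. Held 24–36 h dark at 20°C, 75% rh, then 12 h light/day; percent disease control versus untreated discs scored 12–14 days after application.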

O=C(C1CC1(F)F)N(CCO)Cc1ccc(-c2noc(C(F)(F)F)n2)cc1 (stereo not drawn) [Compound 1.708, 2,2-difluoro-N-(2-hydroxyethyl)-N-[[4-[5-(trifluoromethyl)-1,2,4-oxadiazol-3-yl]phenyl]methyl]-cyclopropane-carboxamide]
≥ 80%: inhibition of growth at 20 ppm [1] | pest or weed control at 200 ppm [2] | pest or weed control at 200 ppm [3]

C#CCOC(=O)NC(C(=O)N(Cc1ccc(-c2noc(C(F)(F)F)n2)cc1)C1CC1)C(C)C (stereo not drawn) [Compound 1.144, prop-2-ynyl N-[1-[cyclopropyl-[[4-[5-(trifluoromethyl)-1,2,4-oxadiazol-3-yl]phenyl]methyl]-carbamoyl]-2-methyl-propyl]carbamate]
≥ 80%: inhibition of growth at 20 ppm [1] | pest or weed control at 200 ppm [2] | pest or weed control at 200 ppm [3]

CON(Cc1ccc(-c2noc(C(F)(F)F)n2)cc1)C(=O)N(C)C#N [Compound 3.62, 1-cyano-3-methoxy-1-methyl-3-[[4-[5-(trifluoromethyl)-1,2,4-oxadiazol-3-yl]phenyl]methyl]urea]
≥ 80%: inhibition of growth at 20 ppm [1] | pest or weed control at 200 ppm [2] | pest or weed control at 200 ppm [3]

O=C(CC1CC1)N(Cc1ccc(-c2noc(C(F)(F)F)n2)cc1)CC1CCCO1 (stereo not drawn) [Compound 1.418, 2-cyclopropyl-N-(tetrahydrofuran-2-ylmethyl)-N-[[4-[5-(trifluoromethyl)-1,2,4-oxadiazol-3-yl]phenyl]methyl]-acetamide]
≥ 80%: inhibition of growth at 20 ppm [1] | pest or weed control at 200 ppm [2] | pest or weed control at 200 ppm [3]

C#CCN(Cc1ccc(-c2noc(C(F)(F)F)n2)cc1)C(=O)C1CC1(Cl)Cl (stereo not drawn) [Compound 1.190, 2,2-dichloro-N-prop-2-ynyl-N-[[4-[5-(trifluoromethyl)-1,2,4-oxadiazol-3-yl]phenyl]methyl]-cyclopropane-carboxamide]
≥ 80%: inhibition of growth at 20 ppm [1] | pest or weed control at 200 ppm [2] | pest or weed control at 200 ppm [3]

CC(=O)N(CCO)Cc1ccc(-c2noc(C(F)(F)F)n2)cc1 [Compound 1.735, N-(2-hydroxyethyl)-N-[[4-[5-(trifluoromethyl)-1,2,4-oxadiazol-3-yl]phenyl]methyl]-acetamide]
≥ 80%: inhibition of growth at 20 ppm [1] | pest or weed control at 200 ppm [2] | pest or weed control at 200 ppm [3]

CC=CCC(=O)N(Cc1ccc(-c2noc(C(F)(F)F)n2)cc1)CC1CC1 [Compound 1.222, N-(cyclopropylmethyl)-N-[[4-[5-(trifluoromethyl)-1,2,4-oxadiazol-3-yl]phenyl]methyl]-pent-3-enamide]
≥ 80%: inhibition of growth at 20 ppm [1] | pest or weed control at 200 ppm [2] | pest or weed control at 200 ppm [3]

CCON(Cc1ccc(-c2noc(C(F)(F)F)n2)cc1)C(=O)C1CCC1 [Compound 1.619, N-ethoxy-N-[[4-[5-(trifluoromethyl)-1,2,4-oxadiazol-3-yl]phenyl]methyl]-cyclobutane-carboxamide]
≥ 80%: inhibition of growth at 20 ppm [1] | pest or weed control at 200 ppm [2] | pest or weed control at 200 ppm [3]

COCC(=O)OCCN(Cc1ccc(-c2noc(C(F)(F)F)n2)cc1)C(=O)COC [Compound 1.716, 2-[(2-methoxy-acetyl)-[[4-[5-(trifluoromethyl)-1,2,4-oxadiazol-3-yl]phenyl]methyl]-amino]ethyl 2-methoxyacetate]
≥ 80%: inhibition of growth at 20 ppm [1] | pest or weed control at 200 ppm [2] | pest or weed control at 200 ppm [3]

CON(Cc1ccc(-c2noc(C(F)(F)F)n2)cc1)C(=O)NC1CCCCC1 [Compound 3.11, 3-cyclohexyl-1-methoxy-1-[[4-[5-(trifluoromethyl)-1,2,4-oxadiazol-3-yl]phenyl]methyl]urea]
≥ 80%: inhibition of growth at 20 ppm [1] | pest or weed control at 200 ppm [2] | pest or weed control at 200 ppm [3]

CC(C)(C)OC(=O)ON(Cc1ccc(-c2noc(C(F)(F)F)n2)cc1)C(=O)OC(C)(C)C [Compound 2.21, [tert-butoxycarbonyl-[[4-[5-(trifluoromethyl)-1,2,4-oxadiazol-3-yl]phenyl]methyl]-amino]tert-butyl carbonate]
≥ 80%: inhibition of growth at 20 ppm [1] | pest or weed control at 200 ppm [2] | pest or weed control at 200 ppm [3]

O=C(CC1CC1)N(CCO)Cc1ccc(-c2noc(C(F)(F)F)n2)cc1 [Compound 1.736, 2-cyclopropyl-N-(2-hydroxyethyl)-N-[[4-[5-(trifIuoromethyl)-1,2,4-oxadiazol-3-yl]phenyl]methyl]-acetamide]
≥ 80%: inhibition of growth at 20 ppm [1] | pest or weed control at 200 ppm [2] | pest or weed control at 200 ppm [3]

O=C(CC(F)(F)F)N(CCO)Cc1ccc(-c2noc(C(F)(F)F)n2)cc1 [Compound 1.733, 3,3,3-trifluoro-N-(2-hydroxyethyl)-N-[[4-[5-(trifluoromethyl)-1,2,4-oxadiazol-3-yl]phenyl]methyl]-propanamide]
≥ 80%: inhibition of growth at 20 ppm [1] | pest or weed control at 200 ppm [2] | pest or weed control at 200 ppm [3]

CCC(C)C(=O)N(CCO)Cc1ccc(-c2noc(C(F)(F)F)n2)cc1 (stereo not drawn) [Compound 1.720, N-(2-hydroxyethyl)-2-methyl-N-[[4-[5-(trifluoromethyl)-1,2,4-oxadiazol-3-yl]phenyl]methyl]-butanamide]
≥ 80%: inhibition of growth at 20 ppm [1] | pest or weed control at 200 ppm [2] | pest or weed control at 200 ppm [3]

O=C(CC1CC1)OCCN(Cc1ccc(-c2noc(C(F)(F)F)n2)cc1)C(=O)CC1CC1 [Compound 1.737, 2-[(2-cyclopropylacetyl)-[[4-[5-(trifluoromethyl)-1,2,4-oxadiazol-3-yl]phenyl]methyl]-amino]ethyl 2-cyclopropylacetate]
≥ 80%: inhibition of growth at 20 ppm [1] | pest or weed control at 200 ppm [2] | pest or weed control at 200 ppm [3]

CCCC(=O)N(Cc1ccc(-c2noc(C(F)(F)F)n2)cc1)CC1CCCO1 (stereo not drawn) [Compound 1.416, N-(tetrahydrofuran-2-ylmethyl)-N-[[4-[5-(trifluoromethyl)-1,2,4-oxadiazol-3-yl]phenyl]methyl]-butanamide]
≥ 80%: inhibition of growth at 20 ppm [1] | pest or weed control at 200 ppm [2] | pest or weed control at 200 ppm [3]

COCCCC(=O)N(Cc1ccc(-c2noc(C(F)(F)F)n2)cc1)CC1CC1 [Compound 1.238, N-(cyclopropylmethyl)-4-methoxy-N-[[4-[5-(trifluoromethyl)-1,2,4-oxadiazol-3-yl]phenyl]methyl]-butanamide]
≥ 80%: inhibition of growth at 20 ppm [1] | pest or weed control at 200 ppm [2] | pest or weed control at 200 ppm [3]

C=CCN(Cc1ccc(-c2noc(C(F)(F)F)n2)cc1)C(=O)C1CCCC1 [Compound 1.475, N-allyl-N-[[4-[5-(trifluoromethyl)-1,2,4-oxadiazol-3-yl]phenyl]methyl]-cyclopentane-carboxamide]
≥ 80%: inhibition of growth at 20 ppm [1] | pest or weed control at 200 ppm [2] | pest or weed control at 200 ppm [3]

O=C(C1CCCC1)N(Cc1ccc(-c2noc(C(F)(F)F)n2)cc1)CC1CC1 [Compound 1.212, N-(cyclopropylmethyl)-N-[[4-[5-(trifluoromethyl)-1,2,4-oxadiazol-3-yl]phenyl]methyl]-cyclopentane-carboxamide]
≥ 80%: inhibition of growth at 20 ppm [1] | pest or weed control at 200 ppm [2] | pest or weed control at 200 ppm [3]

CON(C(=O)C1(C#N)CC1)C(C)c1ccc(-c2noc(C(F)(F)F)n2)cc1 (stereo not drawn) [Compound 1.274, 1-cyano-N-methoxy-N-[1-[4-[5-(trifluoromethyl)-1,2,4-oxadiazol-3-yl]phenyl]ethyl]-cyclopropane-carboxamide]
≥ 80%: inhibition of growth at 20 ppm [1] | pest or weed control at 200 ppm [2] | pest or weed control at 200 ppm [3]

C#CCN(Cc1ccc(-c2noc(C(F)(F)F)n2)cc1)C(=O)C1CCCCC1 [Compound 1.158, N-prop-2-ynyl-N-[[4-[5-(trifluoromethyl)-1,2,4-oxadiazol-3-yl]phenyl]methyl]-cyclohexane-carboxamide]
≥ 80%: inhibition of growth at 20 ppm [1] | pest or weed control at 200 ppm [2] | pest or weed control at 200 ppm [3]

CCCCON(Cc1ccc(-c2noc(C(F)(F)F)n2)cc1)C(=O)C(C)OC (stereo not drawn) [Compound 1.647, N-butoxy-2-methoxy-N-[[4-[5-(trifluoromethyl)-1,2,4-oxadiazol-3-yl]phenyl]methyl]-propanamide]
≥ 80%: inhibition of growth at 20 ppm [1] | pest or weed control at 200 ppm [2] | pest or weed control at 200 ppm [3]

COCCN(Cc1ccc(-c2noc(C(F)(F)F)n2)cc1)C(=O)CC(C)(C)C [Compound 1.342, N-(2-methoxyethyl)-3,3-dimethyl-N-[[4-[5-(trifluoromethyl)-1,2,4-oxadiazol-3-yl]phenyl]methyl]-butanamide]
≥ 80%: inhibition of growth at 20 ppm [1] | pest or weed control at 200 ppm [2] | pest or weed control at 200 ppm [3]

Source: US11180462B2, “Microbiocidal oxadiazole derivatives” (SYNGENTA PARTICIPATIONS AG, priority 2015, dated 2021)
